Test results: patent US7786142B2, “Heterocyclic compounds as pSTAT3/IL-6 inhibitors” (Orchid Research Laboratories, Ltd., priority 2005, dated 2010)

Tests used:
[1] = system: NCIH460 cells; experiment: Anti-cancer screen (MTT), NCIH460 cells; assay type: cell-based; details: Homo sapiens, NCI-H460, NCIH460, 48 hours, concentrations tested 0.01-100 μM
Procedure, shortened: (§1)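 Cells (5000/well) in DMEM with 10% FBS were treated for 48 hours with 0.01, 0.1, 1, 10 and 100 μM compound in triplicate. MTT read at 570 nm gave percent growth relative to untreated controls and pre-dose T0 wells, from which GI50, TGI and LC50 were derived.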

[2] = system: HCT116 cells; experiment: Anti-cancer screen (MTT), HCT116 cells; assay type: cell-based; details: Homo sapiens, HCT-116, HCT116, 48 hours, concentrations tested 0.01-100 μM
Procedure, shortened: as §1

[3] = system: IL-6; experiment: IL-6 in culture supernatants of NCIH 460 cells (ELISA); assay type: cell-based, Human
Protocol: Human Lung Cancer cell line (NCIH 460) is used for IL-6 measurement. 5000 cells/well were seeded in a 96 well plate and incubated in CO2 incubator at 37° C. for 24 hours. After 24 hours of incubation the medium from all wells were completed removed and added 100 μl of fresh DMEM containing 10% FCS. 100 μl of different concentrations of the drug were added and incubated for 5 hours in CO2 incubator at 37° C. After 5 hours of incubation the supernatants were collected and stored at −80° C. The concentration of IL-6 in the supernatant was measured using ELISA kit and the IC50 value of the compound was determined from the dose response curve, (See Table II).

Compound: COc1ccc(CNC[C@H](O)COc2cccc3[nH]c4ccccc4c23)c(OC)c1 [Example 25, (2S)-1-(9H-carbazol-4-yloxy)-3-[(2,4-dimethoxybenzyl)amino]propan-2-ol]
- GI50 [1]: 670 nM
- IC (TGI) [1]: 55 µM
- CC50 ([1]; read-out: LC50 (the source's name)): 68 µM
- GI50 [2]: 5.6 µM
- IC (TGI) [2]: 48 µM
- LC50 (concentration for 50% net cell kill relative to T0) [2]: 79 µM
- inhibition at 0.1 µM ([3]; Homo sapiens, NCI-H460, 0.1 μM, NCIH 460, 5 hours): 36%
- inhibition at 1 µM ([3]; Homo sapiens, NCI-H460, 1 μM, NCIH 460, 5 hours): 50.9%
- IC50 ([3]; Homo sapiens, NCI-H460, NCIH 460, 5 hours, read-out: IL-6 Inhibition IC50): 780 nM
- IL-6 inhibition ([3]; in words): very good IL-6 inhibition
